Results reported in US11981658B2, “Substituted aminopyridine compounds as EGFR inhibitors” (YUHAN CORPORATION, priority 2021, dated 2024).
Like-named read-outs stand apart in the source and are kept apart here.

Legend:
[1] = target: EGFR Del19/C797S (Homo sapiens, UniProt P00533, C797S/DEL746-750); test: Biochemical EGFR kinase inhibition assay (Lance Ultra TR-FRET), double mutant del19/C797S
Outline: (§1)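 Kinase activity is measured by TR-FRET phosphopeptide detection. Compounds span 0.003 μM to 10 μM; the 1 h reaction at room temperature is quenched with EDTA, then labelled antibody (2 nM) is incubated 60 min before reading.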

[2] = target: EGFR Del19/T790M/C797S (Homo sapiens, UniProt P00533, C797S/DEL746-750/T790M); test: Biochemical EGFR kinase inhibition assay (Lance Ultra TR-FRET), triple mutant del19/T790M/C797S
Outline: as §1

[3] = target: EGFR wildtype (WT) (Homo sapiens, UniProt P00533); test: Biochemical EGFR kinase inhibition assay (Lance Ultra TR-FRET), wildtype
Outline: as §1

[4] = target: EGFR L858R/T790M/C797S (Homo sapiens, UniProt P00533, C797S/L858R/T790M); test: Biochemical EGFR kinase inhibition assay (Lance Ultra TR-FRET), triple mutant L858R/T790M/C797S
Outline: as §1

[5] = target: EGFR L858R/C797S (Homo sapiens, UniProt P00533, C797S/L858R); test: Biochemical EGFR kinase inhibition assay (Lance Ultra TR-FRET), double mutant L858R/C797S
Outline: as §1

[6] = IC50 Del19/C797S (nM), 100 μM ATP
[7] = Km ATP, read-out: IC50 Del19/C797S (nM), Km ATP
[8] = IC50 Del19/T790M/C797S (nM), 100 μM ATP
[9] = Km ATP, read-out: IC50 Del19/T790M/C797S (nM), Km ATP
[10] = Km ATP, read-out: IC50 WT (nM), Km ATP
[11] = IC50 L858R/T790M/C797S (nM), 100 μM ATP
[12] = Km ATP, read-out: IC50 L858R/T790M/C797S (nM), Km ATP
[13] = IC50 L858R/C797S (nM), 100 μM ATP
[14] = Km ATP, read-out: IC50 L858R/C797S (nM), Km ATP
[15] = ATP at Km, read-out: IC50 Del19/C797S (nM), Km ATP
[16] = ATP at Km, read-out: IC50 Del19/T790M/C797S (nM), Km ATP
[17] = ATP at Km, read-out: IC50 WT (nM), Km ATP
[18] = ATP at Km, read-out: IC50 L858R/T790M/C797S (nM), Km ATP
[19] = ATP at Km, read-out: IC50 L858R/C797S (nM), Km ATP

EGFR wildtype (WT), sequence (P00533 25-1210): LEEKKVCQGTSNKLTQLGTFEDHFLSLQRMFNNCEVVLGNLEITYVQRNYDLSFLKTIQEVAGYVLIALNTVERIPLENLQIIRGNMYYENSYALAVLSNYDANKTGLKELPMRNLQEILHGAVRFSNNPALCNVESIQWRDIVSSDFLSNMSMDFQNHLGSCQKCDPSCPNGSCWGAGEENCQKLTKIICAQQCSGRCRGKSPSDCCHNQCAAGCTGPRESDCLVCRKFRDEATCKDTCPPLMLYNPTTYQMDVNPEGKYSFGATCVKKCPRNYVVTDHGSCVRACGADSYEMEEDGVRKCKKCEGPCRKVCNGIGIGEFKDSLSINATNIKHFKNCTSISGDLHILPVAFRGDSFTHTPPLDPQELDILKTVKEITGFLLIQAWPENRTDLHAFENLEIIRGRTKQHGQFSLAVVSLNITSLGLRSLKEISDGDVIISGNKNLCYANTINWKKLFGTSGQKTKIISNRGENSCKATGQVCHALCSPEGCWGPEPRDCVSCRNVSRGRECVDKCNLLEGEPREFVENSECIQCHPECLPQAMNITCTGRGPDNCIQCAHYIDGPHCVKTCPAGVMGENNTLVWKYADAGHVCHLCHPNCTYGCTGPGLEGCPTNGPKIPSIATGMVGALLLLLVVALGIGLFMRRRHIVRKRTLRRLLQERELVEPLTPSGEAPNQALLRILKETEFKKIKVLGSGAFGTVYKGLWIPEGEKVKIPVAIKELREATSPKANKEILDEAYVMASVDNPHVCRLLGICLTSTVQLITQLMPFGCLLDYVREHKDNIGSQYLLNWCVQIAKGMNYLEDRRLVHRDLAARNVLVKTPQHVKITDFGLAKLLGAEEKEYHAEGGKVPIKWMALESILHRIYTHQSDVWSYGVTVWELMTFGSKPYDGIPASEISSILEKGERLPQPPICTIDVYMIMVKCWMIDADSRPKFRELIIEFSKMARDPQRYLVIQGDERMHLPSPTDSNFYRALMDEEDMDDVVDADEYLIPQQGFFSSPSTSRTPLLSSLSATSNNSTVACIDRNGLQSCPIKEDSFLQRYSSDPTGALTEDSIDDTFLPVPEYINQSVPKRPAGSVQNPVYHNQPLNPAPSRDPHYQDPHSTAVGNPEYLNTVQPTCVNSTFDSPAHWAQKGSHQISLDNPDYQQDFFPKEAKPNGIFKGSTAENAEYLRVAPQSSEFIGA
EGFR Del19/T790M/C797S, sequence (P00533 with tags, fused parts or gaps DEL746-750/T790M/C797S): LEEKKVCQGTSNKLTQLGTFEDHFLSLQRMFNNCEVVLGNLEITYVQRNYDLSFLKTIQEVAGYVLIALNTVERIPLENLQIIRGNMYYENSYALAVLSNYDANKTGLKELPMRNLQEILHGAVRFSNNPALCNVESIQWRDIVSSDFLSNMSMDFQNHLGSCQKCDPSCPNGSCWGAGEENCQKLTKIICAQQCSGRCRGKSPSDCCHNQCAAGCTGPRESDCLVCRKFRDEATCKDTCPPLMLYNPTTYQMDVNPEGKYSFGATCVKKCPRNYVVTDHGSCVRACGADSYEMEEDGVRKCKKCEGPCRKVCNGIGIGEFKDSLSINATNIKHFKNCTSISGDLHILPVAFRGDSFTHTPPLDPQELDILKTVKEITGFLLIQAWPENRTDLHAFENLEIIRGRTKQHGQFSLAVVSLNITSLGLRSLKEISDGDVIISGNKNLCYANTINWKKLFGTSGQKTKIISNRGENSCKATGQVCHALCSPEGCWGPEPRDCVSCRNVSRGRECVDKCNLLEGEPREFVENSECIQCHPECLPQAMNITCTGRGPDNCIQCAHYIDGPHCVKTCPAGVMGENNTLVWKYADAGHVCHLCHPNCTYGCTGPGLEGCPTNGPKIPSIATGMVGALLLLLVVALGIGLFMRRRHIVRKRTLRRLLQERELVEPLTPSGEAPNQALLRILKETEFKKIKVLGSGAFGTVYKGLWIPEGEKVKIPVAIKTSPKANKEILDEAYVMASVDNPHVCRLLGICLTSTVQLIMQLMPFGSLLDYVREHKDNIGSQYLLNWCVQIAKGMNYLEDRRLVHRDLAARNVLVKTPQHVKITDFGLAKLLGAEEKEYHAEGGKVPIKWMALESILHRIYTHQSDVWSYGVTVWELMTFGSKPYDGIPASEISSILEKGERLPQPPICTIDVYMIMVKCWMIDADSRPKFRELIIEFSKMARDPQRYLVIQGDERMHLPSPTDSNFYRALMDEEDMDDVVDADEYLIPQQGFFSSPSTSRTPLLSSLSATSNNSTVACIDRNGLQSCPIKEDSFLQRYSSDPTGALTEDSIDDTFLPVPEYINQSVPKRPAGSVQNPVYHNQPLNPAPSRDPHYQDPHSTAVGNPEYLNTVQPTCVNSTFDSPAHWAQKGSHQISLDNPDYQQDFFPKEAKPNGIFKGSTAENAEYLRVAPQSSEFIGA
EGFR Del19/C797S, sequence (P00533 with tags, fused parts or gaps DEL746-750/C797S): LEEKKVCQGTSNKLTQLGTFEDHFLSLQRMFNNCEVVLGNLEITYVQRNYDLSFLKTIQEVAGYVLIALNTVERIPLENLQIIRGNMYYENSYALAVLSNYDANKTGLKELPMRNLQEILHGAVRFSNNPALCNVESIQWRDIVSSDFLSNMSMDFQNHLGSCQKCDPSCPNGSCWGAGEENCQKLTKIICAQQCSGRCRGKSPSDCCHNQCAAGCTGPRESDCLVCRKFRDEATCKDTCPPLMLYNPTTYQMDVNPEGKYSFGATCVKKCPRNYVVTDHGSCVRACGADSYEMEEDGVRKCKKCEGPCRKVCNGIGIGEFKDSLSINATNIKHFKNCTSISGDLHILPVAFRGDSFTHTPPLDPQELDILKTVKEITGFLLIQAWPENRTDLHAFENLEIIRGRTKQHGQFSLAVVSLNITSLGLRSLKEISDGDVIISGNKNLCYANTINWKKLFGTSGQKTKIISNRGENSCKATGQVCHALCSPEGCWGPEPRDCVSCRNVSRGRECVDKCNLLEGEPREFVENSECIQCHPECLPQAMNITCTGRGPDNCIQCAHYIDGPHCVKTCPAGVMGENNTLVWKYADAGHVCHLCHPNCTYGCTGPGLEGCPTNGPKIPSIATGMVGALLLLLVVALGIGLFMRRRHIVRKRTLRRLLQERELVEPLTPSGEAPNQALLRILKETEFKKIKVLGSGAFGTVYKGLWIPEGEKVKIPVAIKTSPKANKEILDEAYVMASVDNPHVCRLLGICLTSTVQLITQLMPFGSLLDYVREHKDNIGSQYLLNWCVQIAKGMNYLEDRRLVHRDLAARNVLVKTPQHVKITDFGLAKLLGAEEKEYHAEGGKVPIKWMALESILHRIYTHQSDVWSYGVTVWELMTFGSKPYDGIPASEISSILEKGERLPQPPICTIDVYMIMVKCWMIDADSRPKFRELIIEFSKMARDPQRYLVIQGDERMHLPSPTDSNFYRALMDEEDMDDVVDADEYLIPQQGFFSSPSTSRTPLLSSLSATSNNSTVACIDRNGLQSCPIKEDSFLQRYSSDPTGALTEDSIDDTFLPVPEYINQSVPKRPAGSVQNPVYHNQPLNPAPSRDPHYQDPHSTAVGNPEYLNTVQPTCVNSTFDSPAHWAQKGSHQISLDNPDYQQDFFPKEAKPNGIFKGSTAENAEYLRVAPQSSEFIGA
EGFR L858R/C797S, sequence (P00533 25-1210 C797S/L858R): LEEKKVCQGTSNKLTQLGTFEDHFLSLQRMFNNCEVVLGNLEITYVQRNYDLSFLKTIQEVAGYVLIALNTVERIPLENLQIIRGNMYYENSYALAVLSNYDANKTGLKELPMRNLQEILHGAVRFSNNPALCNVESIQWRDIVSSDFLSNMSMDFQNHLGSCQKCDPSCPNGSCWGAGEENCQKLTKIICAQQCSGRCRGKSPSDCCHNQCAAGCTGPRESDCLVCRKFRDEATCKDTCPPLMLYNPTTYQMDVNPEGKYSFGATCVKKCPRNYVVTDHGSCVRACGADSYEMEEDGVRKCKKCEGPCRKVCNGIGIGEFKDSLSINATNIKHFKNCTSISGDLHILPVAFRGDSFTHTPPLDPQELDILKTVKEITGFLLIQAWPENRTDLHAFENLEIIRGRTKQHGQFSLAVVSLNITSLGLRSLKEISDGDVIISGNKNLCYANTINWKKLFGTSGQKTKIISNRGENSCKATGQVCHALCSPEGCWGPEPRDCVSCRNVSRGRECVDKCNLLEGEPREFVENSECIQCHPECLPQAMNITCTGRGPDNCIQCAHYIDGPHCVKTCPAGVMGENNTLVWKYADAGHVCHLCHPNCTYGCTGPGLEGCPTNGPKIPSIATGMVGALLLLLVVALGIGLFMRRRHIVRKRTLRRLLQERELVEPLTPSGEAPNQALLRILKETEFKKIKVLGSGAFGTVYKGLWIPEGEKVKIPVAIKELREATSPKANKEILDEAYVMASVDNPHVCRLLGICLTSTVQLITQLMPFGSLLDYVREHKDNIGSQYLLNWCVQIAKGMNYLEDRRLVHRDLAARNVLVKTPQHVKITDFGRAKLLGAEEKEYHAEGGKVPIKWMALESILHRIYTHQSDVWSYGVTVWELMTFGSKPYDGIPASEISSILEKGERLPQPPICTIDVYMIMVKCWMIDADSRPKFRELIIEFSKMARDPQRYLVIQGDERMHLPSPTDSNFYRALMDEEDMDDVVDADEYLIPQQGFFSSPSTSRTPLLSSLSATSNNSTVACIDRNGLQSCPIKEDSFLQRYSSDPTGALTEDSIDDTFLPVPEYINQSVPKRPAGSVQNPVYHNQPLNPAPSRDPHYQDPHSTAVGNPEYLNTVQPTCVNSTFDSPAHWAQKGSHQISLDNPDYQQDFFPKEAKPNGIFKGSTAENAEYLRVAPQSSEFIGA

SMILES	IC50 [1, 6]	IC50 [1, 7]	IC50 [2, 8]	IC50 [2, 9]	IC50 ([3]; IC50 WT (nM), 100 μM ATP)	IC50 [3, 10]	IC50 [4, 11]	IC50 [4, 12]	IC50 [5, 13]	IC50 [5, 14]	IC50 [1, 15]	IC50 [2, 16]	IC50 [3, 17]	IC50 [4, 18]	IC50 [5, 19]
CN1CCN(Cc2ccc(C#Cc3cnc(Nc4ccnc(-c5cnn(S(=O)(=O)C6CC6)c5)n4)cc3N3CCC(C)(O)CC3)cc2)CC1 [Example 368, 1-(2-((2-(1-(Cyclopropylsulfonyl)-1H-pyrazol-4-yl)pyrimidin-4-yl)amino)-5-((4-((4-methylpiperazin-1-yl)methyl)phenyl)ethynyl)pyridin-4-yl)-4-methylpiperidin-4-ol]	0.7 nM	0.6 nM	0.4 nM	0.4 nM	197 nM	0.8 nM	0.2 nM	0.1 nM	1.4 nM	0.7 nM					
C=CC#Cc1cnc(Nc2ccnc(-c3cnn(S(=O)(=O)C4CC4)c3)n2)cc1N1CCC(C)(CO)CC1 [Example 277, (1-(5-(But-3-en-1-yn-1-yl)-2-((2-(1-(cyclopropylsulfonyl)-1H-pyrazol-4-yl)pyrimidin-4-yl)amino)pyridin-4-yl)-4-methylpiperidin-4-yl)methanol]	3.3 nM		0.8 nM		> 10000 nM		1.8 nM		33.7 nM		1.4 nM	0.6 nM	11.4 nM	0.3 nM	2.5 nM
C[C@]1(O)CCCN(c2cc(Nc3ccnc(-c4cnn(S(=O)(=O)C5CC5)c4)n3)ncc2C#Cc2cnn(C(F)(F)F)c2)C1 [Example 448, (S)-1-(2-((2-(1-(Cyclopropylsulfonyl)-1H-pyrazol-4-yl)pyrimidin-4-yl)amino)-5-((1-(trifluoromethyl)-1H-pyrazol-4-yl)ethynyl)pyridin-4-yl)-3-methylpiperidin-3-ol]	44.7 nM	27.7 nM	1.7 nM	1 nM	> 10000 nM	300 nM	6.1 nM	1.2 nM	503 nM	5.8 nM					
O=S(=O)(C1CC1)n1cc(-c2nccc(Nc3cc(NC4CCC(O)CC4)c(C#CC4CCCO4)cn3)n2)cn1 (stereo not drawn) [Example 376, (1s,4s)-4-((2-((2-(1-(Cyclopropylsulfonyl)-1H-pyrazol-4-yl)pyrimidin-4-yl)amino)-5-((tetrahydrofuran-2-yl)ethynyl)pyridin-4-yl)amino)cyclohexan-1-ol]	2.5 nM	1.4 nM	0.5 nM	0.3 nM	> 10000 nM	15.1 nM	1.1 nM	3.4 nM	102 nM	7.8 nM					
CN(C)CCC1CCN(c2cc(Nc3ccnc(-c4cnn(S(=O)(=O)C5CC5)c4)n3)ncc2C#Cc2cnn(CC(F)(F)F)c2)CC1 [Example 349, 2-(1-(Cyclopropylsulfonyl)-1H-pyrazol-4-yl)-N-(4-(4-(2-(dimethylamino)ethyl)piperidin-1-yl)-5-((1-(2,2,2-trifluoroethyl)-1H-pyrazol-4-yl)ethynyl)pyridin-2-yl)pyrimidin-4-amine]	4.8 nM	2.6 nM	1.5 nM	1.5 nM	844 nM	9.1 nM	1 nM	0.5 nM	9.4 nM	1.4 nM					
O=S(=O)(C1CC1)n1cc(-c2nccc(Nc3cc(N4CCC5(CCO5)CC4)c(C#Cc4ncc(CN5CCOCC5)cn4)cn3)n2)cn1 [Example 367, 2-(1-(Cyclopropylsulfonyl)-1H-pyrazol-4-yl)-N-(5-((5-(morpholinomethyl)pyrimidin-2-yl)ethynyl)-4-(1-oxa-7-azaspiro[3.5]nonan-7-yl)pyridin-2-yl)pyrimidin-4-amine]	3.5 nM	1.6 nM	0.4 nM	0.3 nM	> 10000 nM	7.6 nM	1.2 nM	0.1 nM	25.6 nM	3.9 nM					
CC(C)Nc1cc(Nc2ccnc(-c3cnn(S(=O)(=O)C4CC4)c3)n2)ncc1C#CCN1CCCC1 [Example 203, N^2-(2-(1-(Cyclopropylsulfonyl)-1H-pyrazol-4-yl)pyrimidin-4-yl)-N^4-isopropyl-5-(3-(pyrrolidin-1-yl)prop-1-yn-1-yl)pyridine-2,4-diamine]											68.1 nM	2.2 nM	437 nM	1.4 nM	110 nM
CS(=O)(=O)N1CCC(C#Cc2cnc(Nc3ccnc(-c4cnn(S(=O)(=O)C5CC5)c4)n3)cc2NCC2CCC(O)CC2)C1 (stereo not drawn) [Example 398, (1 r,4r)-4-(((2-((2-(1-(Cyclopropylsulfonyl)-1H-pyrazol-4-yl)pyrimidin-4-yl)amino)-5-((1-(methylsulfonyl)pyrrolidin-3-yl)ethynyl)pyridin-4-yl)amino)methyl)cyclohexan-1-ol]	44.3 nM	16.6 nM	14.9 nM	26.7 nM	> 10000 nM	294 nM	29.3 nM	24.7 nM	971 nM	17.8 nM					
O=S(=O)(C1CC1)n1cc(-c2nccc(Nc3cc(NC[C@H]4CC[C@H](O)CC4)c(C#CC4CC5CCC4O5)cn3)n2)cn1 (stereo partly drawn) [Example 423, (1r,4r)-4-(((5-((7-Oxabicyclo[2.2.1]heptan-2-yl)ethynyl)-2-((2-(1-(cyclopropylsulfonyl)-1H-pyrazol-4-yl)pyrimidin-4-yl)amino)pyridin-4-yl)amino)methyl)cyclohexan-1-ol]	105 nM		1.2 nM		> 10000 nM		3.2 nM		1770 nM						
Cn1cc(C#Cc2cnc(Nc3ccnc(-c4cnn(S(=O)(=O)C5CC5)c4)n3)cc2N[C@@H]2CCC[C@H](O)C2)cn1 [Example 45, (1 S,3R)-3-((2-((2-(1-(Cyclopropylsulfonyl)-1H-pyrazol-4-yl)pyrimidin-4-yl)amino)-5-((1-methyl-1H-pyrazol-4-yl)ethynyl)pyridin-4-yl)amino)cyclohexan-1-ol]	7.3 nM		0.9 nM		> 10000 nM		2.3 nM		46.2 nM						
CC1(CO)CCN(c2cc(Nc3ccnc(-c4cnn(S(=O)(=O)C5CC5)c4)n3)ncc2C#Cc2ccc(C(=O)N3CCC(O)CC3)cc2)CC1 [Example 446, (4-((6-((2-(1-(Cyclopropylsulfonyl)-1H-pyrazol-4-yl)pyrimidin-4-yl)amino)-4-(4-(hydroxymethyl)-4-methylpiperidin-1-yl)pyridin-3-yl)ethynyl)phenyl)(4-hydroxypiperidin-1-yl)methanone]	1.3 nM		1.2 nM	1 nM	2670 nM		0.4 nM	0.2 nM	18.9 nM						
CN1CCN(Cc2ccc(C#Cc3cnc(Nc4ccnc(-c5cnn(S(=O)(=O)C6CC6)c5)n4)cc3N[C@H]3CC[C@]4(CCC(=O)N4)CC3)cc2)CC1 [Example 362, (5s,8s)-8-((2-((2-(1-(Cyclopropylsulfonyl)-1H-pyrazol-4-yl)pyrimidin-4-yl)amino)-5-((4-((4-methylpiperazin-1-yl)methyl)phenyl)ethynyl)pyridin-4-yl)amino)-1-azaspiro[4.5]decan-2-one]	1.7 nM	1.1 nM	0.7 nM	0.5 nM	4900 nM	10.7 nM	0.6 nM	0.1 nM	3.2 nM	0.9 nM					
